Target: T1, KRAS 4B G12C protein (Homo sapiens, UniProt P01116, G12C)
T1 construct: This protein contained 188 amino acids in total, including an N-terminal 6-Histidine tag; made in house; host or cells: E. coli BL21
Assay: In vitro covalent adduct formation (CAF) assay by LC-MS
Type: binding
Conditions: compound 10 μM, protein 5 μM, 22° C., percentage of protein bound by the compound
Experimental: In vitro covalent adduct formation assay: Covalent adduct formation (CAF) reactions between Cys12 of the KRAS 4B G12C protein and some of the compounds of Table 1 were measured in vitro using liquid chromatography-mass spectrometry (LC-MS).
Recombinant Human KRAS 4B protein containing the G12C mutation was used in compound screening experiments. This protein contained 188 amino acids in total, including an N-terminal 6-Histidine tag, followed by a Tobacco Etch Virus (TEV) tag, followed by residues 1-169 of the native KRAS 4B sequence. The exact mass of the protein was 21,310 Da as determined by mass spectrometry. The full amino acid sequence is shown below:
The recombinant protein was expressed in E. coli BL21 cells and purified using affinity chromatography via a Ni-NTA column. […] Pure KRAS 4B G12C protein was diluted to a concentration of 5 μM in Tris Buffered Saline, pH 7.4. The compounds were dissolved in DMSO and added to the diluted protein to make a 10 μM concentration. The total DMSO concentration in the reaction was 4%. The reaction was mixed by pipetting and incubated at 22° C. for one hour. Aliquots of the reaction were taken over time and diluted 2:1 in 0.1% formic acid. The intact mass of the protein samples was measured by LC-MS using a QExactive+ mass spectrometer (Thermo Scientific). An amount of 500 ng total protein was injected onto a C8 reverse phase column, eluted with a seven-minute gradient of 30%-90% acetonitrile/0.1% formic acid, and analyzed for intact mass by the mass spectrometer. Adducts identified were confirmed to be within 1 Dalton of the expected mass, and the relative ratios of free:adduct protein were used to quantify the percentage of protein bound by the compound. CAF reactions were run in duplicate, with a typical variability of ±5%.

Row | Structure (SMILES) | CAF (10 minutes/60 minutes) at 10 micromolar: 10 minutes | CAF (10 minutes/60 minutes) at 10 micromolar: 60 minutes
1 | C=CC(=O)N1CCN(c2nc(OC[C@@H]3CCCN3C)nc3c2CN(Cc2c(C)cccc2OC(F)F)C3)C[C@@H]1CC#N [1-83] | 97% | 100%
2 | C=CC(=O)N1CCN(c2nc(OC[C@@H]3CCCN3C)nc3c2CN(C2CCc4cccc(Cl)c42)C3)C[C@@H]1CC#N (stereo partly drawn) [1-84] | 98% | 99%
3 | C=CC(=O)N1CCN(c2nc(OC[C@@H]3CCCN3C)nc3c2CN(Cc2c(Cl)cccc2OC(F)F)C3)C[C@@H]1C [1-85] | 0%/ 0% | 0%/ 0%
4 | C=CC(=O)N1CCN(c2nc(OC[C@@H]3CCCN3C)nc3c2CN(C2CCOc4ccccc42)C3)C[C@@H]1CC#N (stereo partly drawn) [1-86] | 59% | 93%
5 | C=C(F)C(=O)N1CCN(c2nc(OC[C@@H]3CCCN3C)nc3c2CN(Cc2cc(O)ccc2Cl)C3)C[C@@H]1CC#N [1-87] | 97% | 99%
6 | C=CC(=O)N1CC2COCC(C1)N2c1nc(OC[C@@H]2CCCN2C)nc2c1CN(Cc1cc(OC)ccc1Cl)C2 [1-88] | 0%/ 0% | 0%/ 0%
7 | C=CC(=O)N1CC2COCC(C1)N2c1nc(OC[C@@H]2CCCN2C)nc2c1CN(Cc1cc(O)ccc1Cl)C2 [1-90] | 2% | 12%
8 | C=CC(=O)N1CCN(c2nc(OC[C@@H]3CCCN3C)nc3c2CN(Cc2c(Cl)cccc2OC(F)F)C3)[C@H](C)C1 [1-91] | 0%/ 0% | 0%/ 0%
9 | C=CC(=O)N1CCN(c2nc(OC[C@@H]3CCCN3C)nc3c2CN(Cc2c(Cl)cccc2OC)C3)C[C@@H]1CCO [1-92] | 0%/ 0% | 0%/ 0%
10 | C=CC(=O)N1CCN(c2nc(OC[C@@H]3CCCN3C)nc3c2CN(Cc2c(Cl)cccc2OC(F)F)C3)CC1 [1-94] | 0%/ 0% | 0%/ 0%
11 | C=CC(=O)N1CCN(c2nc(OC[C@@H]3CCCO3)nc3c2CN(Cc2c(O)cccc2F)C3)C[C@@H]1CC#N [1-95] | 21% | 70%
12 | C=CC(=O)N1CCN(c2nc(OC[C@@H]3CCCN3C)nc3c2CN(Cc2ccc(F)cc2Cl)C3)C[C@@H]1CC#N [1-96] | 51% | 93%
13 | C=CC(=O)N1CCN(c2nc(OC[C@@H]3CCCN3C)nc3c2CN(C(C)c2c(F)cccc2OC)C3)C[C@@H]1CC#N (stereo partly drawn) [1-97] | 95% | 98%
14 | C=CC(=O)N1CCN(c2nc(OC[C@@H]3CCCN3C)nc3c2CN(Cc2c(Cl)cccc2OC)C3)C[C@@H]1C(O)C(F)(F)F (stereo partly drawn) [1-98] | 0% | 1%
15 | C=CC(=O)N1CCN(c2nc(OC[C@@H]3CCCN3C)nc3c2CN(Cc2c(Cl)cccc2OC(F)F)C3)[C@@H](C)C1 [1-99] | 0% | 6%
16 | C=CC(=O)N1CCN(c2nc(OC[C@@H]3CCCN3C)nc3c2CN(C2CCc4ccccc42)C3)C[C@@H]1CC(F)(F)F (stereo partly drawn) [1-100] | 0% | 5%
17 | C=CC(=O)N1CCN(c2nc(OC[C@@H]3CCCN3C)nc3c2CN(C2CCc4ccccc42)C3)C[C@@H]1CCO (stereo partly drawn) [1-101] | 0% | 1%
18 | C=CC(=O)N1CCN(c2nc(OC[C@@H]3CCCN3C)nc3c2CN(Cc2ccccc2F)C3)C[C@@H]1CC#N [1-102] | 89% | 96%
